Data from patent US6410733B1, “Amidine inhibitors of serine proteases” (Genentech, Inc., priority 2000, dated 2002).

Target: human Factor Xa (Homo sapiens, UniProt P00742)
Assay: Factor Xa assay
Assay type: biochemical
Parameters: This complex converts factor X to Xa; purchased Hematologic Technologies
Conditions: 3.3 nM Xa, S-2222 0.5 mM; read-out: binding affinity to serine proteases: Xa (constant of inhibition Ki)
Procedure: These procedures are used to determine the constant of inhibition (Ki) for a sample compound of the invention.
Coagulation Factor: human Factor Xa, Thrombin, or Plasma Kallikrein (Hematologic Technologies) Dilute to 0.45 μg/mL (9.8 nM) in assay buffer.
Substrate: S-2222, S2366 or S2302—(See below—Chromogenix Inc,) Reconstitute at 5 mM in H2O. Dilute to 1.5 mM in assay buffer prior to use.
Samples: Dilute samples to 3% DMSO in assay buffer.
1. Add 50 μL sample to each well.
2. Add 50 μL appropriately diluted coagulation factor to each well.
3. Incubate for 5 minutes at room temperature with gentle agitation.
4. Add 50 μL appropriately diluted substrate to each well.
5. Agitate plate for 20-25 sec.
6. Monitor absorbance at 405 nm every 10 sec for a total of 5 minutes at room temperature.
7. Calculate Vmax over 10 points.

human Factor Xa, sequence (P00742 235-488 limits assumed): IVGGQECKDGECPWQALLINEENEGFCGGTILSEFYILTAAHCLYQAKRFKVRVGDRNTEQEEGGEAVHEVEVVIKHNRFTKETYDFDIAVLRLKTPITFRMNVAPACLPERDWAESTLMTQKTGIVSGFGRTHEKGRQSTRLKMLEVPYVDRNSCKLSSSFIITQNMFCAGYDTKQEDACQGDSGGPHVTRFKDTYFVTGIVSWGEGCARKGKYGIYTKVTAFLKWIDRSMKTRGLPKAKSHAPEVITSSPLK
human Factor Xa, sequence (P00742 41-179 limits assumed): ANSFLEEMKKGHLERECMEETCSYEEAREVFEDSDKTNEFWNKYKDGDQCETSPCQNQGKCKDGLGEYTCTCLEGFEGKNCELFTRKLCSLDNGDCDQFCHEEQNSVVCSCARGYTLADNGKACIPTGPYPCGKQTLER

Ki: 114 µM
Compound: C[C@@H](NC(=O)[C@@H]1C[C@@H](Oc2cccc(C(=N)N)c2)CN1)c1ccccc1 [compound 26]
